# Measured values published in US10597388B2, “Pyridazinone herbicides” (FMC CORPORATION, priority 2014, dated 2020).
# Assays:
# Type in all cases: in vivo
# [1] = test system: foxtail, giant (giant foxtail, Setaria faberii); experiment: Test A greenhouse herbicide test, pre- and postemergence
# Method in brief: (§1)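 Visual injury ratings, 0 (no effect) to 100 (complete control), versus untreated plants after roughly 10 d in a greenhouse. Compounds, formulated in a surfactant-containing non-phytotoxic solvent, were sprayed on loam–sand soil after sowing (pre) or on one- to two-leaf plants 2–10 cm tall (post).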
# [2] = test system: pigweed (Amaranthus retroflexus); experiment: as above
# Method in brief: as §1
# [3] = test system: wheat (Triticum aestivum); experiment: as above; details: Postemergence
# Method in brief: as §1
# [4] = test system: ragweed (common ragweed, Ambrosia elatior); experiment: as above
# Method in brief: as §1
# [5] = test system: kochia (Kochia scoparia); experiment: as above
# Method in brief: as §1
# [6] = test system: blackgrass (Alopecurus myosuroides); experiment: Test C greenhouse herbicide test, pre- and postemergence
# Method in brief: (§2)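 Visual 0–100 injury score (100 = complete control) taken against untreated controls after 13–15 d in greenhouse. Test chemicals, formulated in solvent plus surfactant, applied preemergence to seeds in loam–sand soil or postemergence to 1- to 4-leaf plants (2–18 cm).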
# [7] = test system: velvetleaf (Abutilon theophrasti); experiment: as above
# Method in brief: as §2
# [8] = test system: pigweed (Amaranthus retroflexus); experiment: as above
# Method in brief: as §2
# [9] = test system: morningglory (Ipomoea coccinea); experiment: as above
# Method in brief: as §2
# [10] = test system: corn (Zea mays); experiment: as above
# Method in brief: as §2
# [11] = test system: ryegrass, Italian (Italian ryegrass, Lolium multiflorum); experiment: as above
# Method in brief: as §2
# [12] = Postemergence, 125 g ai/ha, 0 to 100 scale where 0 is no effect and 100 is complete control
# [13] = Postemergence, 500 g ai/ha, 0 to 100 scale, 0 is no effect, 100 is complete control
# [14] = Preemergence, 125 g ai/ha, 0 to 100 scale where 0 is no effect and 100 is complete control
# [15] = Preemergence, 500 g ai/ha, 0 to 100 scale where 0 is no effect and 100 is complete control
# [16] = Postemergence, 31 g ai/ha, 0 to 100 scale (0 no effect, 100 complete control)
# [17] = Postemergence, 125 g ai/ha, scale 0 to 100, 0 is no effect, 100 is complete control
# [18] = Postemergence, 250 g ai/ha, scale 0 to 100, 0 no effect, 100 complete control, 13 to 15 d
# [19] = Preemergence, 31 g ai/ha, scale 0 to 100, 0 is no effect, 100 is complete control
# [20] = Preemergence, 62 g ai/ha, scale 0 to 100, 0 is no effect, 100 is complete control
# [21] = Preemergence, 125 g ai/ha, scale 0 to 100, 0 is no effect, 100 is complete control
# [22] = Preemergence, 250 g ai/ha, scale 0 to 100, 0 no effect, 100 complete control
# [23] = postemergence, 62 g ai/ha, scale 0 to 100, 0 no effect, 100 complete control
compound,measurement,setting,value
COC(=O)Oc1c(C)nn(C)c(=O)c1-c1c(C)sc2ccc(C)cc12 [Compound 80],"Plant response rating, Foxtail, Giant",[1]; [12],80
same,"Foxtail, Giant plant response rating",[1]; [13],80
same,"Foxtail, Giant plant response rating",[1]; [14],80
same,"Plant response rating, Foxtail, Giant",[1]; [15],90
same,"Plant response rating, Pigweed",[2]; [12],90
same,Pigweed plant response rating,[2]; [13],90
same,Pigweed plant response rating,[2]; [14],90
same,"Plant response rating, Pigweed",[2]; [15],100
same,"Plant response rating, Wheat","[3]; 125 g ai/ha, 0 to 100 scale where 0 is no effect and 100 is complete control",0
same,Wheat plant response rating,"[3]; 500 g ai/ha, 0 to 100 scale, 0 is no effect, 100 is complete control",0
same,"Plant response rating, Ragweed",[4]; [12],80
same,Ragweed plant response rating,[4]; [13],90
same,Ragweed plant response rating,[4]; [14],80
same,"Plant response rating, Ragweed",[4]; [15],90
same,"Plant response rating, Kochia",[5]; [12],90
same,Kochia plant response rating,[5]; [13],90
same,Kochia plant response rating,[5]; [14],90
same,"Plant response rating, Kochia",[5]; [15],90
same,Blackgrass plant response rating,[6]; [16],15
same,"Plant response rating, Blackgrass",[6]; [17],40
same,"Plant response rating, Blackgrass",[6]; [18],50
same,"Plant response rating, Blackgrass",[6]; [19],70
same,"Plant response rating, Blackgrass",[6]; [20],80
same,"Plant response rating, Blackgrass",[6]; [21],80
same,Blackgrass plant response rating,[6]; [22],90
same,Blackgrass plant response rating,[6]; [23],35
same,Velvetleaf plant response rating,[7]; [16],70
same,"Plant response rating, Velvetleaf",[7]; [17],55
same,"Plant response rating, Velvetleaf",[7]; [18],90
same,"Plant response rating, Velvetleaf",[7]; [19],55
same,"Plant response rating, Velvetleaf",[7]; [20],85
same,"Plant response rating, Velvetleaf",[7]; [21],90
same,Velvetleaf plant response rating,[7]; [22],95
same,Velvetleaf plant response rating,[7]; [23],90
same,Pigweed plant response rating,[8]; [16],85
same,"Plant response rating, Pigweed",[8]; [17],95
same,"Plant response rating, Pigweed",[8]; [18],95
same,"Plant response rating, Pigweed",[8]; [19],100
same,"Plant response rating, Pigweed",[8]; [20],100
same,"Plant response rating, Pigweed",[8]; [21],100
same,Pigweed plant response rating,[8]; [22],100
same,Pigweed plant response rating,[8]; [23],90
same,Morningglory plant response rating,[9]; [16],100
same,"Plant response rating, Morningglory",[9]; [17],100
same,"Plant response rating, Morningglory",[9]; [18],98
same,"Plant response rating, Morningglory",[9]; [19],85
same,"Plant response rating, Morningglory",[9]; [20],90
same,"Plant response rating, Morningglory",[9]; [21],90
same,Morningglory plant response rating,[9]; [22],98
same,Morningglory plant response rating,[9]; [23],100
same,Corn plant response rating,[10]; [16],0
same,"Plant response rating, Corn",[10]; [17],5
same,"Plant response rating, Corn",[10]; [18],5
same,"Plant response rating, Corn",[10]; [19],0
same,"Plant response rating, Corn",[10]; [20],10
same,"Plant response rating, Corn",[10]; [21],10
same,Corn plant response rating,[10]; [22],25
same,Corn plant response rating,[10]; [23],5
same,"Ryegrass, Italian plant response rating",[11]; [16],80
same,"Plant response rating, Ryegrass, Italian",[11]; [17],85
same,"Plant response rating, Ryegrass, Italian",[11]; [18],85
same,"Plant response rating, Ryegrass, Italian",[11]; [19],35
same,"Plant response rating, Ryegrass, Italian",[11]; [20],70
same,"Plant response rating, Ryegrass, Italian",[11]; [21],90
same,"Ryegrass, Italian plant response rating",[11]; [22],90
same,"Ryegrass, Italian plant response rating",[11]; [23],85
